Data taken from PMC5053523, “In Vitro Antibacterial Activity of Rhodanine Derivatives against Pathogenic Clinical Isolates” (PLoS ONE, 2016).
Converted amounts (≈) assume the structure as drawn. Like-named read-outs stand apart in the source and are kept apart here.

How the values were obtained:
Pseudomonas aeruginosa [1] = assay: MIC with/without PMBN, Pseudomonas aeruginosa; format: cell-based
Description: (§1) The MIC of the rhodanines and control antibiotics, in the presence of a sub-inhibitory concentration of colistin or polymixin B nonapeptide (PMBN), against Gram-negative bacteria was evaluated as described before. The antibacterial activity of the rhodanines was further investigated against E. coli SM1411Δ acrAB, a strain that is deficient in the multidrug-resistant AcrAB efflux pump, as described before.

MRSA USA300 = assay: MIC against MRSA USA300 with and without 4% human serum albumin; format: cell-based, Staphylococcus aureus; conditions: Staphylococcus aureus, read-out: MIC against MRSA USA300
Method in brief: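 MIC measured in tryptic soy broth spiked with 4% HSA and without it, using CLSI broth microdilution on MRSA USA300. Value reported is the lowest concentration preventing bacterial growth.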

Candida albicans = assay: MIC against Candida albicans; format: cell-based; conditions: table prints none, read-out: MIC
Bacillus anthracis = assay: microbe, parasite or virus in culture; format: cell-based
Pseudomonas aeruginosa [2] = assay: MIC with/without sub-MIC colistin, Pseudomonas aeruginosa; format: cell-based
Description: as §1

Escherichia coli O157:H7 = assay: MIC with/without sub-MIC colistin, Escherichia coli O157:H7; format: cell-based
Description: as §1

Acinetobacter baumannii [3] = assay: Broth microdilution MIC, Acinetobacter baumannii; format: cell-based
Klebsiella pneumoniae [4] = assay: MIC with/without sub-MIC colistin, Klebsiella pneumoniae; format: cell-based
Description: as §1

K. pneumoniae = assay: Broth microdilution MIC, K. pneumoniae; format: cell-based
B. licheniformis = assay: Broth microdilution MIC/MBC, B. licheniformis; format: cell-based; conditions: Bacillus licheniformis; for MBC: read-out: MBC; for MIC: read-out: MIC
Acinetobacter baumannii [5] = assay: MIC with/without sub-MIC colistin, Acinetobacter baumannii; format: cell-based
Description: as §1

[6] = system: vancomycin resistant enterococci (VRE); assay: Broth microdilution MIC50/MIC90, VRE panel; format: cell-based; conditions: Enterococcus, 10 VRE strains; for MIC90: VRE, read-out: MIC 90; for MIC50: read-out: MIC 50
[7] = system: methicillin-resistant Staphylococcus aureus (MRSA); assay: Broth microdilution MIC/MBC, MRSA; format: cell-based
Acinetobacter baumannii [8] = assay: MIC with/without PMBN, Acinetobacter baumannii; format: cell-based
Description: as §1

Klebsiella pneumoniae [9] = assay: MIC with/without PMBN, Klebsiella pneumoniae; format: cell-based
Description: as §1

Salmonella Typhimurium = assay: MIC with/without sub-MIC colistin, Salmonella Typhimurium; format: cell-based
Description: as §1

[10] = Pseudomonas aeruginosa ATCC 9721, PMBN (+) 4 μg/mL, read-out: MIC
[11] = Pseudomonas aeruginosa, ATCC9721
[12] = Pseudomonas aeruginosa ATCC 921, colistin (+) […], read-out: MIC
[13] = Pseudomonas aeruginosa, ATCC921
[14] = Escherichia coli O157:H7 ATCC 35150, colistin (+) […], read-out: MIC
[15] = Escherichia coli O157:H7 ATCC 700728, colistin (+) […], read-out: MIC
[16] = Klebsiella pneumoniae ATCC BAA 2146, colistin (+) […]
[17] = NCIB9375, B. licheniformis Gibson 46 (NCIB 9375) NR-2494
[18] = NRS712, B. licheniformis NRS 712 NR-2499
[19] = Acinetobacter baumannii ATCC BAA747, colistin (+) […], read-out: MIC
[20] = Acinetobacter baumannii ATCC BAA19606, colistin (+) […], read-out: MIC
[21] = Acinetobacter baumannii, ATCCBAA747
[22] = Acinetobacter baumannii, ATCCBAA19606
[23] = Acinetobacter baumannii ATCC BAA747, PMBN (+) 4 μg/mL, read-out: MIC
[24] = Acinetobacter baumannii ATCC BAA19606, PMBN (+) 4 μg/mL, read-out: MIC
[25] = Klebsiella pneumoniae ATCC BAA 1706, PMBN (+) 4 μg/mL
[26] = Klebsiella pneumoniae ATCC BAA 2146, PMBN (+) 4 μg/mL
[27] = Salmonella Typhimurium ATCC 700720, colistin (+) […], read-out: MIC
[28] = Salmonella enterica, ATCC 700720 / TYPHIMURIUM

For O=C(O)[C@H](Cc1ccccc1)N1C(=O)/C(=C/c2cccc(-c3ccccc3)c2)SC1=S [Rh 5], the MIC (Pseudomonas aeruginosa [1]; [10]) was over 64 µM, the MIC (Pseudomonas aeruginosa [1]; [11]) was over 128 µM and the MIC (MRSA USA300; 24 h, Media TSB + 4% HSA) was over 64 µM. For the same compound, the MIC (MRSA USA300; Media TSB) was 16 µM (≈ 7.13 µg/mL), the MIC (Candida albicans; ATCC10231, C. albicans ATCC 10231, unit from abstract) was over 64 µM and the MIC (Candida albicans; C. albicans NR 29434, unit from abstract) was over 64 µM. The MIC (Candida albicans; C. albicans NR 29435, unit from abstract) was over 64 µM, the MIC (Candida albicans; C. albicans NR29437, unit from abstract) was over 64 µM and the MIC (Candida albicans; C. albicans NR29438, unit from abstract) was over 64 µM. The MIC (Candida albicans; C. albicans NR 29446, unit from abstract) was over 64 µM, the MIC (Candida albicans; C. albicans NR 29448, unit from abstract) was over 64 µM and the MIC (Candida albicans; C. albicans NR 29449, unit from abstract) was over 64 µM. The MIC (Candida albicans; C. albicans NR 29453, unit from abstract) was over 64 µM, the MIC (Candida albicans; C. albicans NR 294436, unit from abstract) was over 64 µM and the MBC (Bacillus anthracis; Bacillus anthracis AMES35) was 2 µM (≈ 0.891 µg/mL). The MIC (Bacillus anthracis; Bacillus anthracis AMES35) was 2 µM (≈ 0.891 µg/mL), the MBC (Bacillus anthracis; Bacillus anthracis UM23) was 2 µM (≈ 0.891 µg/mL) and the MIC (Bacillus anthracis; Bacillus anthracis UM23) was 2 µM (≈ 0.891 µg/mL). The MBC (Bacillus anthracis; Bacillus anthracis Weybridge) was 4 µM (≈ 1.78 µg/mL), the MIC (Bacillus anthracis; Bacillus anthracis Weybridge) was 2 µM (≈ 0.891 µg/mL) and the MIC (Pseudomonas aeruginosa [2]; [12]) was over 64 µM. The MIC (Pseudomonas aeruginosa [2]; [13]) was over 128 µM, the MIC (Escherichia coli O157:H7; [14]) was over 64 µM and the MIC (Escherichia coli O157:H7; [15]) was over 64 µM. The MIC (Escherichia coli O157:H7; Escherichia coli, ATCC35150) was over 128 µM, the MIC (Escherichia coli O157:H7; Escherichia coli, ATCC700728) was over 128 µM and the MIC (Acinetobacter baumannii [3]; ATCC13345) was over 128 µM. The MIC (Acinetobacter baumannii [3]; ATCC17786) was over 128 µM, the MIC (Klebsiella pneumoniae [4]; [16]) was over 64 µM and the MIC (Klebsiella pneumoniae [4]; Klebsiella pneumoniae, BAA2146) was over 128 µM. For the same compound, the MIC (K. pneumoniae; K. pneumoniae NR-15417) was over 128 µM, the MIC (K. pneumoniae; Klebsiella pneumoniae) was over 128 µM and the MBC (B. licheniformis; [17]) was 8 µM (≈ 3.56 µg/mL). The MIC (B. licheniformis; [17]) was 8 µM (≈ 3.56 µg/mL), the MBC (B. licheniformis; [18]) was 8 µM (≈ 3.56 µg/mL) and the MIC (B. licheniformis; [18]) was 8 µM (≈ 3.56 µg/mL). It also gave an MIC (Acinetobacter baumannii [5]; [19]) of over 64 µM, an MIC (Acinetobacter baumannii [5]; [20]) of over 64 µM and an MIC (Acinetobacter baumannii [5]; [21]) of over 128 µM. The MIC (Acinetobacter baumannii [5]; [22]) was over 128 µM, the MIC90 [6] was 16 µM (≈ 7.13 µg/mL) and the MIC50 [6] was 16 µM (≈ 7.13 µg/mL). For the same compound, the MIC50 ([7]; 11 MRSA strains) was 8 µM (≈ 3.56 µg/mL), the MIC90 ([7]; 11 MRSA strains) was 16 µM (≈ 7.13 µg/mL) and the MBC ([7]; MRSA NRS 1) was 16 µM (≈ 7.13 µg/mL). For the same compound, the MIC ([7]; MRSA NRS 1) was 8 µM (≈ 3.56 µg/mL), the MBC ([7]; MRSA NRS 19) was 16 µM (≈ 7.13 µg/mL) and the MIC ([7]; MRSA NRS 19) was 8 µM (≈ 3.56 µg/mL). It also gave an MBC ([7]; MRSA NRS 37) of 16 µM (≈ 7.13 µg/mL), an MIC ([7]; MRSA NRS 37) of 16 µM (≈ 7.13 µg/mL) and an MBC ([7]; MRSA NRS 107) of 16 µM (≈ 7.13 µg/mL). It also gave an MIC ([7]; MRSA NRS 107) of 16 µM (≈ 7.13 µg/mL), an MBC ([7]; MRSA NRS 119) of 8 µM (≈ 3.56 µg/mL) and an MIC ([7]; MRSA NRS 119) of 8 µM (≈ 3.56 µg/mL). It also gave an MBC ([7]; MRSA NRS 382) of 8 µM (≈ 3.56 µg/mL), an MIC ([7]; MRSA NRS 382) of 8 µM (≈ 3.56 µg/mL) and an MBC ([7]; MRSA NRS 383) of 16 µM (≈ 7.13 µg/mL). For the same compound, the MIC ([7]; MRSA NRS 383) was 16 µM (≈ 7.13 µg/mL), the MBC ([7]; MRSA NRS 384) was 64 µM (≈ 28.5 µg/mL) and the MIC ([7]; MRSA NRS 384) was 8 µM (≈ 3.56 µg/mL). It also gave an MBC ([7]; MRSA NRS 385) of 16 µM (≈ 7.13 µg/mL), an MIC ([7]; MRSA NRS 385) of 8 µM (≈ 3.56 µg/mL) and an MBC ([7]; MRSA NRS 386) of 64 µM (≈ 28.5 µg/mL). The MIC ([7]; MRSA NRS 386) was 8 µM (≈ 3.56 µg/mL), the MBC ([7]; MRSA NRS 387) was 8 µM (≈ 3.56 µg/mL) and the MIC ([7]; MRSA NRS 387) was 8 µM (≈ 3.56 µg/mL). It also gave an MIC (Acinetobacter baumannii [8]; [23]) of over 64 µM, an MIC (Acinetobacter baumannii [8]; [24]) of over 64 µM and an MIC (Acinetobacter baumannii [8]; [21]) of over 128 µM. For the same compound, the MIC (Acinetobacter baumannii [8]; [22]) was over 128 µM, the MIC (Klebsiella pneumoniae [9]; [25]) was over 64 µM and the MIC (Klebsiella pneumoniae [9]; [26]) was over 64 µM. It also gave an MIC (Klebsiella pneumoniae [9]; Klebsiella pneumoniae, BAA1706) of over 128 µM, an MIC (Klebsiella pneumoniae [9]; Klebsiella pneumoniae, BAA2146) of over 128 µM and an MIC (Salmonella Typhimurium; [27]) of over 64 µM. The MIC (Salmonella Typhimurium; [28]) was over 128 µM.

For CC(=O)NC[C@H]1CN(c2ccc(N3CCOCC3)c(F)c2)C(=O)O1 [Linezolid, linezolid, reference compound], the MIC (Pseudomonas aeruginosa [1]; [10]) was 16 µM (≈ 5.4 µg/mL), the MIC (Pseudomonas aeruginosa [1]; [11]) was over 128 µM and the MIC (Pseudomonas aeruginosa [2]; [12]) was 64 µM (≈ 21.6 µg/mL). The MIC (Pseudomonas aeruginosa [2]; [13]) was over 128 µM, the MIC (Escherichia coli O157:H7; [14]) was at most 0.5 µM and the MIC (Escherichia coli O157:H7; [15]) was 4 µM (≈ 1.35 µg/mL). It also gave an MIC (Escherichia coli O157:H7; Escherichia coli, ATCC35150) of over 128 µM, an MIC (Escherichia coli O157:H7; Escherichia coli, ATCC700728) of over 128 µM and an MIC (Klebsiella pneumoniae [4]; [16]) of over 64 µM. The MIC (Klebsiella pneumoniae [4]; Klebsiella pneumoniae, BAA2146) was over 128 µM, the MBC (B. licheniformis; [17]) was 2 µM (≈ 0.675 µg/mL) and the MIC (B. licheniformis; [17]) was 1 µM (≈ 0.337 µg/mL). It also gave an MBC (B. licheniformis; [18]) of 4 µM (≈ 1.35 µg/mL), an MIC (B. licheniformis; [18]) of 2 µM (≈ 0.675 µg/mL) and an MIC (Acinetobacter baumannii [5]; [19]) of over 64 µM. The MIC (Acinetobacter baumannii [5]; [20]) was over 64 µM, the MIC (Acinetobacter baumannii [5]; [21]) was over 128 µM and the MIC (Acinetobacter baumannii [5]; [22]) was over 128 µM. The MIC90 [6] was 2 µM (≈ 0.675 µg/mL), the MIC50 [6] was 2 µM (≈ 0.675 µg/mL) and the MIC (Acinetobacter baumannii [8]; [23]) was over 64 µM. The MIC (Acinetobacter baumannii [8]; [24]) was over 64 µM, the MIC (Acinetobacter baumannii [8]; [21]) was over 128 µM and the MIC (Acinetobacter baumannii [8]; [22]) was over 128 µM. For the same compound, the MIC (Klebsiella pneumoniae [9]; [25]) was over 64 µM, the MIC (Klebsiella pneumoniae [9]; [26]) was over 64 µM and the MIC (Klebsiella pneumoniae [9]; Klebsiella pneumoniae, BAA1706) was over 128 µM. The MIC (Klebsiella pneumoniae [9]; Klebsiella pneumoniae, BAA2146) was over 128 µM, the MIC (Salmonella Typhimurium; [27]) was over 64 µM and the MIC (Salmonella Typhimurium; [28]) was over 128 µM.
